Earlier results as cited in patent publication US8158147B2, “Modified release formulations of at least one form of tramadol” (priority 2002, dated 2012).
Like-named read-outs stand apart in the source and are kept apart here.

Legend:
[1] = test system: osteoarthritis; conditions: Study No. 058; 6 weeks; rofecoxib 12.5 mg, Nabumetone 1500 mg
[2] = test system: osteoarthritis; conditions: 12 weeks, celecoxib 100 mg BID, Naproxen 500 mg BID

COc1ccc2cc(CCC(C)=O)ccc2c1 [Nabumetone]
WOMAC pain walking on a flat surface, mean difference vs placebo [1]: 10 mm

COc1ccc2cc([C@H](C)C(=O)O)ccc2c1 [Naproxen]
LS mean difference in pain VAS change from baseline vs placebo ([2]; Study No. 020): 7.6 mm
LS mean difference in pain VAS change from baseline vs placebo ([2]; Study No. 054): 11.2 mm

CS(=O)(=O)c1ccc(C2=C(c3ccccc3)C(=O)OC2)cc1 [rofecoxib, Rofecoxib]
WOMAC pain walking on a flat surface, mean difference vs placebo [1]: 9.0 mm
